# What was measured:
# tubulin = assay: Colchicine binding assay (inhibition of [3H]colchicine binding to tubulin); settings: 1.0 μM tubulin, 5.0 μM [3H]colchicine
# Protocol: Colchicine Binding Assay.
# Inhibition of [^3H]colchicine binding to tubulin was measured in 0.1 mL reaction mixtures, each containing 1.0 μM tubulin, 5.0 μM [^3H]colchicine (Perkin-Elmer), 5% (v/v) dimethyl sulfoxide, […], and components that stabilize the colchicine binding activity of tubulin (1.0 M monosodium glutamate [adjusted to pH 6.6 with HCl in a 2.0 M stock solution], 0.5 mg/mL bovine serum albumin, 0.1 M glucose-1-phosphate, 1.0 mM MgCl2, and 1.0 mM GTP). […] Reactions were stopped with 2.0 mL of ice-cold water, with the reaction mixtures being placed on ice. Each diluted sample was poured onto a stack of two DEAE-cellulose filters (GE Biomedical), followed by 3 successive 2 mL aliquots of ice-cold water. A reduced vacuum was used to remove excess water from the filters, which were washed three times with 2 mL water and placed into vials containing 5 mL of Biosafe II scintillation cocktail. Samples were counted 18 h later in a Beckman scintillation counter. Samples with inhibitors were compared to samples with no inhibitor, and percent inhibition was determined, correcting all values for the amount of radiolabel bound to the filters in the absence of tubulin.
# [1] = test system: SK-OV-3 (ovarian) cancer cell line; assay: Sulforhodamine B (SRB) growth inhibition assay, SK-OV-3; format: cell-based, human; settings: 48 h treatment
# From the text: (§1) Cell Lines and Sulforhodamine B (SRB) Assay.
# (§2) The sulforhodamine B (SRB) assay was used to assess growth inhibition of human cancer cells, as previously described. DU-145, SK-OV-3, and NCI-H460 cancer cell lines (obtained from ATCC) were maintained in T75 flasks (Corning) using high glucose DMEM supplemented with 10% fetal bovine serum (Gibco)/1% gentamicin sulfate for a maximum of 15 passages. For these experiments, cells were trypsinized, counted, and plated at 7000-8000 cells/well into 96-well plates (Corning) and incubated for 24 h at 37° C. in a humidified incubator in a 5% CO2 atmosphere. Compounds to be tested were dissolved in DMSO to generate a 10 mg/mL stock solution, and serial dilutions added in media to the plates. Doxorubicin (Sigma-Aldrich) and paclitaxel (Tokyo Chemical) were used as positive controls. After a 48 h treatment, the cells were fixed with trichloroacetic acid (10% final concentration), washed, dried, stained with SRB dye, washed to remove excess dye, and dried. SRB dye was solubilized, and absorbances were measured at wavelength 540 nm and normalized to values at wavelength 630 nm using an automated Biotek plate reader.
# [2] = test system: NCI-H460 (lung) cancer cell line; assay: Sulforhodamine B (SRB) growth inhibition assay, NCI-H460; format: cell-based, human; settings: 48 h treatment
# From the text: as §1, §2
# [3] = test system: DU-145 (prostate) cancer cell line; assay: Sulforhodamine B (SRB) growth inhibition assay, DU-145; format: cell-based, human; settings: 48 h treatment
# From the text: as §1, §2
# [4] = biological target: T1, purified bovine brain tubulin (Bos taurus, UniProt P81947+Q6B856); assay: Inhibition of tubulin polymerization (turbidimetric, cell-free); format: biochemical; settings: for IC50: 10 μM tubulin, extent of polymerization after 20 min at 30° C., read-out: Inhibition of tubulin polymerization IC50 (μM) ± SD; for inhibition of tubulin polymerization (in words): cell-free assay
# T1 construct: purified bovine brain tubulin; from tissue; host or cells: bovine brain
# Protocol: Inhibition of Tubulin Polymerization.
# Tubulin polymerization was evaluated in 0.25 mL reaction mixtures (final volume) containing 1 mg/mL (10 μM) purified bovine brain tubulin, 0.8 M monosodium glutamate (pH 6.6), 4% (v/v) dimethyl sulfoxide, 0.4 mM GTP, and different compound concentrations. All components except GTP were preincubated for 15 min at 30° C. in 0.24 mL. The assay mixtures were cooled to 0° C., and 10 μL of 0.01 M GTP was added to each sample. Reaction mixtures were transferred to cuvettes held at 0° C. in Beckman DU-7400 and DU-7500 spectrophotometers equipped with electronic temperature controllers. The temperature was increased to 30° C., over about 30 s, and polymerization was followed turbidimetrically at 350 nm for 20 min.
# T1 sequence (Q6B856 whole entry): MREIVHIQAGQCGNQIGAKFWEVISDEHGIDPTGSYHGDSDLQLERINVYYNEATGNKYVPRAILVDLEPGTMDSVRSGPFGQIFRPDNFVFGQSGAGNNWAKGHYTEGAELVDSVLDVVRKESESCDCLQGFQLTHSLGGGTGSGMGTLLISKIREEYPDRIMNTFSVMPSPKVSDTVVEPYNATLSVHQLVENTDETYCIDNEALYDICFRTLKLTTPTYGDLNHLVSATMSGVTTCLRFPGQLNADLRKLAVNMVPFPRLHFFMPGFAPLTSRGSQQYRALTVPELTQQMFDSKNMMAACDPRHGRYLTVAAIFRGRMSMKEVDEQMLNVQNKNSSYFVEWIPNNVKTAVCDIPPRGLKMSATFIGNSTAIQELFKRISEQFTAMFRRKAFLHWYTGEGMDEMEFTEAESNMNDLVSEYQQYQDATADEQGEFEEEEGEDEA
# T1 sequence (P81947 whole entry): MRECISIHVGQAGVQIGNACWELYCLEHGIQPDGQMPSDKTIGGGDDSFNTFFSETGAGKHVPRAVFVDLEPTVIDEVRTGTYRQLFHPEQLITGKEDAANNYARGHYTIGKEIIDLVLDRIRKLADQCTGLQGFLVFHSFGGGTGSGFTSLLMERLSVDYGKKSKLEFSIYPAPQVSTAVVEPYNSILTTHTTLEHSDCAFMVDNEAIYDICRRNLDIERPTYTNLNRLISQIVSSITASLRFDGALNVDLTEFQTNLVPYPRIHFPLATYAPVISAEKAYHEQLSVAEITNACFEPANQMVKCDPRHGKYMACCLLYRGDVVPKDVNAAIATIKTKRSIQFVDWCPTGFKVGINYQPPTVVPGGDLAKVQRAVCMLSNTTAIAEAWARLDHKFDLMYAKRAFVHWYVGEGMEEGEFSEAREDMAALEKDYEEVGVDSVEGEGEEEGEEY
Structure (SMILES),% Inhibition of colchicine binding ± SD (tubulin; compound at 1 μM),GI50 [1] [µM],GI50 [2] [µM],GI50 [3] [µM],IC50 [4] [µM],% Inhibition of colchicine binding ± SD (tubulin; compound at 5 μM),"GI50 ([1]; Homo sapiens, SK-OV-3) [µM]","GI50 ([2]; Homo sapiens, NCI-H460) [µM]","GI50 ([3]; Homo sapiens, DU-145) [µM]",inhibition of tubulin polymerization (in words) [4]
"COc1ccc(/C=C\c2cc(OC)c(OC)c(OC)c2)cc1O [CA4, combretastatin A-4, reference compound]",84 ± 3%,0.00455,0.00223,0.00327,–,–,–,–,–,–
"COc1ccc2c(c1C)CCCC=C2c1cc(OC)c(OC)c(OC)c1 [Compound 9, 1-methy-2-methoxy-5-(3′, 4′, 5′-trimethoxyphenyl)-benzosuber-5-ene]",–,–,–,–,1.6 ± 0.2,65 ± 0.6 (5 μM) %,0.33,0.422,0.644,–
"CCCCc1c(OC)ccc2c1CCCC=C2c1cc(OC)c(OC)c(OC)c1 [Compound 20, 4-Butyl-3-methoxy-9-(30,40,50-trimethoxyphenyl)-6,7-dihydro-5H-benzo[7]annulene]",–,–,–,–,> 20,–,11.5,16.1,12.2,–
"COc1ccc2c(c1O)CCCCC2(O)c1cc(OC)c(OC)c(OC)c1 (centres unmarked) [Compound 23, 2-Methoxy-5-(3,4,5-trimethoxyphenyl)-6,7,8,9-tetrahydro-5H-benzo[7]annulene-1,5-diol]",–,–,–,–,> 20,–,0.394,0.173,0.033,reduced inhibition of tubulin polymerization
"COc1ccc2c(c1O)CCCC(=O)C2(O)c1cc(OC)c(OC)c(OC)c1 (centres unmarked) [Compound 24, 1,5-Dihydroxy-2-methoxy-5-(3,4,5-trimethoxyphenyl)-5,7,8,9-tetrahydro-6H-benzo[7]annulen-6-one]",–,–,–,–,1.2 ± 0.1,72 ± 2 (5 μM) %,0.0314,0.0476,0.141,–
"COCCOCCOc1c(OC)ccc2c1CCCC=C2c1cc(OC)c(OC)c(OC)c1 [Compound 28, 3-Methoxy-4-(2-(2-methoxyethoxy)ethoxy)-9-(3,4,5-trimethoxyphenyl)-6,7-dihydro-5H-benzo[7]annulene]",–,–,–,–,> 20,–,6.52,1.9,5.66,loss of inhibitory activity
"COc1cc(C2=CCCCc3c2ccc(OC)c3OCCO)cc(OC)c1OC [Compound 31, 2-((3-Methoxy-9-(3,4,5-trimethoxyphenyl)-6,7-dihydro-5H-benzo[7]annulen-4-yl)oxy)ethan-1-ol]",–,–,–,–,> 20,–,3.22,0.855,3.76,loss of inhibitory activity
"COc1ccc2c(c1O)CCCC(Br)=C2c1cc(OC)c(OC)c(OC)c1 [Compound 33, 8-Bromo-3-methoxy-9-(3,4,5-trimethoxyphenyl)-6,7-dihydro-5H-benzo[7]annulen-4-ol]",–,–,–,–,0.39 ± 0.06,88 ± 1 (5 μM) %,0.0221,0.0353,0.0362,–
"COc1ccc2c(c1C)CCCC(Br)=C2c1cc(OC)c(OC)c(OC)c1 [Compound 34, 8-Bromo-3-methoxy-4-methyl-9-(3,4,5-trimethoxyphenyl)-6,7-dihydro-5H-benzo[7]annulene]",35 ± 5 (1 μM) %,–,–,–,4.9 ± 0.1,–,0.312,0.449,0.423,–
"COc1ccc2c(c1O)CCCC(O)C2(O)c1cc(OC)c(OC)c(OC)c1 (centres unmarked) [Compound 35, 2-Methoxy-5-(3,4,5-trimethoxyphenyl)-6,7,8,9-tetrahydro-5H-benzo[7]annulene-1,5,6-triol]",–,–,–,–,> 20,0 (5 μM) %,3.03,3.86,4.04,reduced inhibition of tubulin polymerization
"COc1ccc2c(c1C#N)CCCC=C2c1cc(OC)c(OC)c(OC)c1 [Compound 38, 3-Methoxy-9-(3,4,5-trimethoxyphenyl)-6,7-dihydro-5H-benzo[7]annulene-4-carbonitrile]",–,0.0648,–,–,1.1 ± 0.1,62 ± 0.7 (5 μM) %,–,0.434,0.86,–
"COc1ccc2c(c1C#N)CCC=C2c1cc(OC)c(OC)c(OC)c1 [Compound 39, 2-Methoxy-5-(3,4,5-trimethoxyphenyl)-7,8-dihydronaphthalene-1-carbonitrile]",–,0.0384,–,–,0.37 ± 0.08,73 ± 0.6 (5 μM) %,–,0.0605,–,–
"COc1ccc2c(c1C=O)CCCC=C2c1cc(OC)c(OC)c(OC)c1 [Compound 40, 3-Methoxy-9-(3,4,5-trimethoxyphenyl)-6,7-dihydro-5H-benzo[7]annulene-4-carbaldehyde]",–,–,–,–,3.2 ± 0.08,61 ± 3 (5 μM) %,0.0572,0.0847,0.0402,–
"COc1ccc2c(c1CO)CCCC=C2c1cc(OC)c(OC)c(OC)c1 [Compound 48, (3-Methoxy-9-(3,4,5-trimethoxyphenyl)-6,7-dihydro-5H-benzo[7]annulen-4-yl)methanol]",–,–,–,–,0.63 ± 0.03,76 ± 2 (5 μM) %,0.0403,0.0628,–,–
COc1ccc2c(c1O)CCC(NC(C)=O)C=C2c1cc(OC)c(OC)c(OC)c1 (centres unmarked) [Compound 69],–,–,–,–,–,0.4 ± 0.6 (5 μM) %,–,0.334,1.2,–
"COc1ccc2c(c1OC)CCCC1=C2c2cc(OC)c(OC)c(OC)c2C1=O [Compound 93, 3,4,9,10,11-Pentamethoxy-6,7-dihydrodibenzo[a,h]azulen-8(5H)-one]",–,–,–,–,> 20,–,3.35,0.65,3.26,–
"COc1cccc2c1C(=O)c1c(O)c3c(c(O)c1C2=O)C[C@@](O)(C(=O)CO)C[C@@H]3O[C@H]1C[C@H](N)[C@H](O)[C@H](C)O1 [Doxorubicin, reference compound]",–,–,–,–,–,–,0.0789,0.123,0.134,–
"CC(=O)O[C@H]1C(=O)[C@@]2(C)[C@H]([C@H](OC(=O)c3ccccc3)[C@]3(O)C[C@H](OC(=O)[C@H](O)[C@@H](NC(=O)c4ccccc4)c4ccccc4)C(C)=C1C3(C)C)[C@]1(OC(C)=O)CO[C@@H]1C[C@@H]2O [Paclitaxel, paclitaxel, reference compound]",–,–,–,–,–,–,0.00134,0.00176,0.00147,–
